This passage reports IC50 results from patent US20240199546A1, “INHIBITORS OF SOLUTE CARRIER FAMILY 6A MEMBER 19 (SLC6A19) AND METHODS OF USE THEREOF” (Maze Therapeutics, Inc., priority 2022, published 2024).

The structures appear in SMILES notation.

This experiment concerns the target T1, human SLC6A19 and TMEM27 (Homo sapiens, UniProt Q695T7).
T1 construct: expressed in transfected cells
T1 sequence (Q695T7 1-634): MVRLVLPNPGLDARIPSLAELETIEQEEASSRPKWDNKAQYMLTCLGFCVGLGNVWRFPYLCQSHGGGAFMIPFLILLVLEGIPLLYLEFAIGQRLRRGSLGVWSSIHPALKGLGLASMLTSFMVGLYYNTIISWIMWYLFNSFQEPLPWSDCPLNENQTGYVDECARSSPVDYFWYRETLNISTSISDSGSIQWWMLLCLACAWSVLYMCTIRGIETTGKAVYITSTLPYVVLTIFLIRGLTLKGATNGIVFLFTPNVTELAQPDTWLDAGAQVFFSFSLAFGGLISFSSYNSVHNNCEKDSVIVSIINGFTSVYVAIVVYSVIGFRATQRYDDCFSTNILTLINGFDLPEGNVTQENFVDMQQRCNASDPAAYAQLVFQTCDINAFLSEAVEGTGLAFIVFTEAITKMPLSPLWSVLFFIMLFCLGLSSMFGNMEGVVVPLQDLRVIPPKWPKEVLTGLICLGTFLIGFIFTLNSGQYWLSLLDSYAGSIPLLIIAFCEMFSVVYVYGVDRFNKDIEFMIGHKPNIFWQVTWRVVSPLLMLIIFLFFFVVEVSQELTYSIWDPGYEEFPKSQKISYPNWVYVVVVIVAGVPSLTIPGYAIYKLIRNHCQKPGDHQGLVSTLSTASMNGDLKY
T1 sequence (Q9HBJ8 15-222 partner): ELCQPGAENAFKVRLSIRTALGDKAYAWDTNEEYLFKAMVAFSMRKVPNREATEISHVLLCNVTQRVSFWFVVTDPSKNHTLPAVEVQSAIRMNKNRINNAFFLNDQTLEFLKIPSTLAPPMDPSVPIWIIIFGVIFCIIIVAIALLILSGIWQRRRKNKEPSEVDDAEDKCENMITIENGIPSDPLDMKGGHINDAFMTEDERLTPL
As to the kind of experiment: Radiolabelled (3H) leucine uptake in CHO cells with doxycycline-inducible expression of human SLC6A19 and TMEM27 (Example B-1). Type of experiment: cell-based. To be noted: CHO cells with doxycycline-inducible expression of human SLC6A19 and TMEM27, read-out: SLC6A19_Radioligand Uptake Assay IC50. Put shortly:
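CHO cells were induced with doxycycline for 18 h at 37 °C, washed in HBSS, then exposed to compounds for 1 h: 8-point, 3-fold dilutions in duplicate, 0.5% DMSO final. Uptake measured by scintillation counting after 2 h shaking. Activity normalized with positive control as 0% and DMSO as 100%.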
For the compound `O=C(NCc1cc2cc(Cl)c(OCc3cscn3)cc2[nH]1)N1CC(O)C1` [Compound 367, N-((5-chloro-6-(thiazol-4-ylmethoxy)-1H-indol-2-yl)methyl)-3-hydroxyazetidine-1-carboxamide], the IC50 was determined as 1240 nM.

`[2H]C([2H])([2H])C(=O)NCc1cc2cc(F)c(OCc3cscn3)cc2[nH]1` [Compound 566, N-((5-fluoro-6-(thiazol-4-ylmethoxy)-1H-indol-2-yl)methyl)acetamide-2,2,2-d3]: the IC50 is 146 nM.

For the compound `CC1(C(=O)NCc2cc3cc(Cl)c(CCn4ccnc4)cc3[nH]2)CC1` [Compound 589, N-((6-(2-(1H-imidazol-1-yl)ethyl)-5-chloro-1H-indol-2-yl)methyl)-1-methylcyclopropane-1-carboxamide], the IC50 came to 4760 nM.

For the compound `O=C(NCc1cc2cc(Cl)c(OCc3cscn3)cc2[nH]1)[C@@H]1CCCO1` [Compound 293, (S)-N-((5-chloro-6-(thiazol-4-ylmethoxy)-1H-indol-2-yl)methyl)tetrahydrofuran-2-carboxamide], the IC50 came out at 500 nM.

Consider `O=C(NCc1cc2cc(Cl)c(OCc3cscn3)cc2[nH]1)N1CCC(O)C1` (racemic) [Compound 366, (R)-N-((5-chloro-6-(thiazol-4-ylmethoxy)-1H-indol-2-yl)methyl)-3-hydroxypyrrolidine-1-carboxamide and (S)-N-((5-chloro-6-(thiazol-4-ylmethoxy)-1H-indol-2-yl)methyl)-3-hydroxypyrrolidine-1-carboxamide], for which the half-maximal inhibitory concentration (IC50) came to 1530 nM.

Consider `CC1(C(=O)NCc2cc3cc(CC#N)c(OCc4ccon4)cc3[nH]2)CC1` [Compound 644, N-((5-(cyanomethyl)-6-(isoxazol-3-ylmethoxy)-1H-indol-2-yl)methyl)-1-methylcyclopropane-1-carboxamide], for which the IC50 is 583 nM.

For the compound `CC(=O)NCc1cc2cc(Cl)c(OCCC3CCCO3)cc2[nH]1` (stereo not shown) [Compound 455, N-((5-chloro-6-(2-(tetrahydrofuran-2-yl)ethoxy)-1H-indol-2-yl)methyl)acetamide], the IC50 stood at 3530 nM.

`Cc1cc(COc2cc3[nH]c(CNC(=O)C(C)C4COC4)cc3cc2Cl)on1` (racemic) [Compound 545, (S)-N-((5-chloro-6-((3-methylisoxazol-5-yl)methoxy)-1H-indol-2-yl)methyl)-2-(oxetan-3-yl)propenamide and (R)-N-((5-chloro-6-((3-methylisoxazol-5-yl)methoxy)-1H-indol-2-yl)methyl)-2-(oxetan-3-yl)propanamide]: the IC50 turned out to be 3540 nM.

For the compound `CN(Cc1cn[nH]c1)C(=O)NCc1cc2cc(Cl)c(OCc3cscn3)cc2[nH]1` [Compound 626, 1-((1H-pyrazol-4-yl)methyl)-3-((5-chloro-6-(thiazol-4-ylmethoxy)-1H-indol-2-yl)methyl)-1-methylurea], the IC50 stood at 765 nM.

For `CC1(C(=O)NCc2cc3cc(OC(F)F)c(OCc4cscn4)cc3[nH]2)CC1` [Compound 604, N-((5-(difluoromethoxy)-6-(thiazol-4-ylmethoxy)-1H-indol-2-yl)methyl)-1-methylcyclopropane-1-carboxamide], the IC50 came to 391 nM.

For `Cc1cc(COc2cc3[nH]c(CNC(=O)C4(CO)CC4)cc3cc2Cl)on1` [Compound 250, N-((5-chloro-6-((3-methylisoxazol-5-yl)methoxy)-1H-indol-2-yl)methyl)-1-(hydroxymethyl)cyclopropane-1-carboxamide], the IC50 was 383 nM.

Consider `CC(=O)NCc1cc2cc(F)c(OCc3cscn3)cc2[nH]1` [Compound 208, N-((5-fluoro-6-(thiazol-4-ylmethoxy)-1H-indol-2-yl)methyl)acetamide], for which the IC50 turned out to be 133 nM.

On to `O=C(NCc1cc2c(F)cc(OCc3cscn3)cc2[nH]1)N1CCC1` [Compound 422, N-((4-fluoro-6-(thiazol-4-ylmethoxy)-1H-indol-2-yl)methyl)azetidine-1-carboxamide], for which the IC50 was found to be 337 nM.

On to `Cc1cc(COc2cc3[nH]c(CNC(=O)NCCF)cc3cc2Cl)on1` [Compound 371, 1-((5-chloro-6-((3-methylisoxazol-5-yl)methoxy)-1H-indol-2-yl)methyl)-3-(2-fluoroethyl)urea], for which the IC50 came out at 141 nM.

In the case of `CC1(C(=O)NCc2cc3cc(Cl)c(OCc4cnccc4F)cc3[nH]2)CC1` [Compound 356, N-((5-chloro-6-((4-fluoropyridin-3-yl)methoxy)-1H-indol-2-yl)methyl)-1-methylcyclopropane-1-carboxamide], the half-inhibitory concentration (IC50) is 389 nM.

As to `CC1(C(=O)NCc2cc3c(F)c(Cl)c(OCc4ccon4)cc3[nH]2)CC1` [Compound 15, N-((5-chloro-4-fluoro-6-(isoxazol-3-ylmethoxy)-1H-indol-2-yl)methyl)-1-methylcyclopropane-1-carboxamide], the IC50 was found to be 363 nM.

As for `CC(=O)NCc1cc2cc(Cl)c(OCCOC3CCC3)cc2[nH]1` [Compound 456, N-((5-chloro-6-(2-cyclobutoxyethoxy)-1H-indol-2-yl)methyl)acetamide], the IC50 amounted to 4260 nM.

`Cc1cc(CCc2cc3[nH]c(CNC(=O)C4(C)CC4)cc3cc2F)no1` [Compound 593, N-((5-fluoro-6-(2-(5-methylisoxazol-3-yl)ethyl)-1H-indol-2-yl)methyl)-1-methylcyclopropane-1-carboxamide]: the IC50 was 220 nM.

Take `Cc1cc(COc2cc3[nH]c(CNC(=O)[C@@H](C)CO)cc3cc2Cl)on1` [Compound 535, (S)-N-((5-chloro-6-((3-methylisoxazol-5-yl)methoxy)-1H-indol-2-yl)methyl)-3-hydroxy-2-methylpropanamide]: the IC50 turned out to be 1650 nM.

Take `Cc1cc(COc2cc3[nH]c(CNC(=O)[C@H]4CCCN4C)cc3cc2Cl)on1` [Compound 578, (R)-N-((5-chloro-6-((3-methylisoxazol-5-yl)methoxy)-1H-indol-2-yl)methyl)-1-methylpyrrolidine-2-carboxamide]: the IC50 was over 5550 nM.

For `CC1(C(=O)NCc2cc3cc(Cl)c(OCc4ncsc4Cl)cc3[nH]2)CC1` [Compound 400, N-((5-chloro-6-((5-chlorothiazol-4-yl)methoxy)-1H-indol-2-yl)methyl)-1-methylcyclopropane-1-carboxamide], the IC50 amounted to 556 nM.

In the case of `O=C(NCc1cc2cc(F)c(OCc3cocn3)cc2[nH]1)N1CCCC1` [Compound 115, N-((5-fluoro-6-(oxazol-4-ylmethoxy)-1H-indol-2-yl)methyl)pyrrolidine-1-carboxamide], the IC50 worked out at 230 nM.

Take `CC(=O)NCc1cc2cc(Cl)c(OCc3ccon3)cc2[nH]1` [Compound 143, N-((5-chloro-6-(isoxazol-3-ylmethoxy)-1H-indol-2-yl)methyl)acetamide]: the IC50 was 182 nM.

On to `Cc1c(CNC(=O)N2CCC2)[nH]c2cc(OCc3cscn3)c(Cl)cc12` [Compound 473, N-((5-chloro-3-methyl-6-(thiazol-4-ylmethoxy)-1H-indol-2-yl)methyl)azetidine-1-carboxamide], for which the IC50 stood at 293 nM.

As for `C[C@@H]1CCN1C(=O)NCc1cc2cc(Cl)c(OCc3ccon3)cc2[nH]1` [Compound 363, (R)-N-((5-chloro-6-(isoxazol-3-ylmethoxy)-1H-indol-2-yl)methyl)-2-methylazetidine-1-carboxamide], the half-maximal inhibitory concentration (IC50) was 332 nM.
